Where “and” joins values, the source holds several entries; their conditions need not be identical. Equal values may be shown once. Marks after values point to notes of the source that are not given here.
How the values were obtained:
Assay type in all cases: biochemical
[1] = tested on: β-glucosidase from almonds; test: Indigogenic reaction with β-glucosidase from almonds
Excerpt: With diverse glucosyl-indoxyl compounds in hand, we carried out a set of studies to examine indigoid-dye formation upon enzymatic cleavage of the glucosyl unit under physiological conditions. Altogether, 14 new (15, 16, 19-27, 30, 33, 41) and 2 known (1, 42) synthetic indoxyl-glucosides (lacking acetyl protecting groups) were examined in an effort to identify suitable combinations of substituents to support both bioconjugation and indigoid dye formation. In initial studies, β-glucosidase from almonds was employed to trigger indigoid dye formation (Table 1). Thus, a mixture of this enzyme (1 unit/mL) and an indoxyl β-glucoside (0.1 μmol, 1 mM) in acetate buffer (pH 5, containing 5% DMF) was incubated at 37° C. for 16-19 h. All indigoid dye was dissolved in each case for quantitative evaluation.
Reactions with β-glucosidase from almonds. An indoxyl compound in DMF (5 μL, 20 mM) and β-glucosidase from almonds in H2O (10 μL, 10 units/mL) were mixed with acetate buffer (85 μL, 50 mM, pH 5.0). The reaction mixture was incubated at 37° C. for 16-19 h and then allowed to cool to room temperature. DMF (300 μL for the reactions of 15, 16, 1, 19, 22, and 25; or 900 μL for the reactions of 42, 20, 21, 23, 24, 26, 27, 30, and 31, respectively) was added to dissolve any indigoid precipitate. The resulting solution was analyzed by absorption spectroscopy.

rat liver homogenate = test: Indigoid-dye formation in rat liver homogenate; conditions: indoxyl 1 mM, 5% DMF, 37° C., 24 h; ε = 1.27 × 10^4 M^-1 cm^-1
Procedure: Finally, indigoid-dye formation was carried out in rat liver homogenate (Table 1, rightmost column).
Reactions in rat liver homogenate. An indoxyl compound in DMF (5 μL, 20 mM) was mixed with rat liver homogenate (95 μL). The reaction mixture was incubated at 37° C. for 24 h. After allowing to cool to room temperature, the reaction mixture was diluted with DMF (900 μL). The mixture was heated at 70° C. for 2 min and then centrifuged for 2 min. The supernatant was separated from any precipitate. This extraction procedure was repeated two or three times with DMF (100-500 μL). The combined supernatant (1500-1800 μL) was analyzed by absorption spectroscopy.

[2] = target: T1, β-glucosidase from Agrobacterium (Agrobacterium sp., UniProt P12614); test: Indigogenic reaction with β-glucosidase from Agrobacterium
T1 construct: purchased Megazyme; host or cells: recombinant
T1 sequence (P12614 1-459): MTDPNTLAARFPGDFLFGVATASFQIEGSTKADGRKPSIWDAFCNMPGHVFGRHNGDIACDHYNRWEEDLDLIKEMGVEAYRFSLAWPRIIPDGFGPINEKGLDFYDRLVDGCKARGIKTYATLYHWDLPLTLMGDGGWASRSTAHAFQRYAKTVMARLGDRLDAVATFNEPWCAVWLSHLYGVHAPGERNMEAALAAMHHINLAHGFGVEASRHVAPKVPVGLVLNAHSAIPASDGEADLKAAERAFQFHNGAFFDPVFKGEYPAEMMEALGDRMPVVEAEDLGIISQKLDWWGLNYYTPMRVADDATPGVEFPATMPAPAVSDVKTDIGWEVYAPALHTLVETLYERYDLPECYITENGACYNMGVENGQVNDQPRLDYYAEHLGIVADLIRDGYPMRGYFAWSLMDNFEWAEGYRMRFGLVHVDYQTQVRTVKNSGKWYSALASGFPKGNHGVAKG
Procedure: Next, the β-glucosidase from Agrobacterium sp. was investigated as the trigger enzyme for indigoid dye formation. […]
Reactions with β-glucosidase from Agrobacterium. An indoxyl compound in DMF (2 μL, 5 mM) and β-glucosidase from Agrobacterium in 10 mM phosphate buffer [2 μL, 10 μM, pH 7.0, containing 50 mM NaCl and 0.6 M (NH4)2SO4] were mixed with 50 mM phosphate buffer (96 μL, pH 7.0). The reaction mixture was incubated at 37° C. for 2 h and then centrifuged for 3 min. Any precipitate was separated from the supernatant and dissolved in DMF (200 μL). The resulting solution was analyzed by absorption spectroscopy. The experiment was repeated three times.

[3] = target: T1, β-glucosidase from Agrobacterium; test: Enzyme-triggered oligomerization of bis(indoxyl-glucoside) 46
Procedure: Oligomerization of 46 was carried out by treatment with β-glucosidase from Agrobacterium (200 nM) in 10 mM phosphate buffer (pH 7) at 37° C. for 2-4 h (Scheme 9). Precipitation occurred during the reaction. After centrifugation, the precipitate was separated from the supernatant, washed with H2O, and dried to afford a blue solid.
The efficacy of the indigogenic oligomerization was examined under a variety of conditions. As shown in entries 1-4 in Table 2, the yield of indigoid dye in the supernatant versus precipitate reversed as the concentration of 46 was decreased from 300 to 10 μM, although the total yields were in the range 17-29%. While the reactions in entries 1-4 were carried out in phosphate buffer containing NaCl (0.05 M), those of entries 5 and 6 (with 300 and 50 μM of 46, respectively) were conducted in NaCl-free phosphate buffer. The use of NaCl-free phosphate buffer facilitated extraction of the indigoid dye in the supernatant for analysis.

[4] = indoxyl 100 μM, enzyme 200 nM, 0.05 M phosphate buffer pH 7.0, 2% DMF, 37° C., 2 h, n=3, ε = 1.27 × 10^4 M^-1 cm^-1
[5] = as E4 but ε = 2.6 × 10^4 M^-1 cm^-1 measured for 43
[6] = indoxyl 1 mM, enzyme 1 unit/mL, acetate buffer pH 5, 5% DMF, 37° C., 16-19 h, ε = 1.27 × 10^4 M^-1 cm^-1 (measured for 4)
[7] = as E1 but ε = 2.6 × 10^4 M^-1 cm^-1 measured for 43
[8] = entry 1: [46] 300 μM, 2 h, phosphate buffer containing NaCl (0.05M)
[9] = entry 2: [46] 100 μM, 3 h, phosphate buffer containing NaCl (0.05M)
[10] = entry 3: [46] 50 μM, 2 h, phosphate buffer containing NaCl (0.05M), repeated three times
[11] = entry 4: [46] 10 μM, 4 h, phosphate buffer containing NaCl (0.05M)
[12] = entry 5: [46] 300 μM, 3 h, NaCl-free phosphate buffer containing DMF (0.1-0.6%)
[13] = entry 6: [46] 50 μM, 3 h, NaCl-free phosphate buffer containing DMF (0.1-0.6%)

| Compound | Yield (%) rat liver homogenate (rat liver homogenate) [%] | Yield (%) β-glucosidase from Agrobacterium [2, 4] [%] | Yield (%) β-glucosidase from Agrobacterium [2, 5] | Yield (%) β-glucosidase from almonds [1, 6] [%] | other results |
| --- | --- | --- | --- | --- | --- |
| 5-bromo-4-chloroindoxyl β-glucoside [Indoxyl 42, reference compound] | 65 |  |  |  | Yield (%) β-glucosidase from almonds ([1]; as E1 but ε = 2.00 × 10^4 M^-1 cm^-1 reported for 5,5′-dibromo-4,4′-dichloroindigo): 74% and 74^e %; Yield (%) β-glucosidase from Agrobacterium ([2]; as E4 but ε = 2.00 × 10^4 M^-1 cm^-1 reported for 5,5′-dibromo-4,4′-dichloroindigo): 116% and 116 ± 8^e % |
| COc1nc(Oc2ccc3[nH]cc(O[C@@H]4O[C@H](CO)[C@@H](O)[C@H](O)[C@H]4O)c3c2Br)nc(N2CCOCC2)n1 [Indoxyl 20, 4-Bromo-5-[(4-methoxy-6-morpholino-1,3,5-triazin-2-yl)oxy]-1H-indole-3-yl β-D-glucopyranoside] | <5 | 150 ± 3 |  |  |  |
| COc1nc(Oc2c(Br)cc3[nH]cc(O[C@@H]4O[C@H](CO)[C@@H](O)[C@H](O)[C@H]4O)c3c2Br)nc(N2CCOCC2)n1 [Indoxyl 21, 4,6-Dibromo-5-[(4-methoxy-6-morpholino-1,3,5-triazin-2-yl)oxy]-1H-indole-3-yl β-D-glucopyranoside] | <5 | 63 ± 4 | 31 ± 2% |  |  |
| COC(=O)COc1ccc2[nH]cc(O[C@@H]3O[C@H](CO)[C@@H](O)[C@H](O)[C@H]3O)c2c1 [Indoxyl 22, 5-(Methoxycarbonyl)methoxy-1H-indol-3-yl β-D-glucopyranoside] | <5 | 30 ± 6 |  | <1 |  |
| COC(=O)COc1ccc2[nH]cc(O[C@@H]3O[C@H](CO)[C@@H](O)[C@H](O)[C@H]3O)c2c1Br [Indoxyl 23, 4-Bromo-5-(methoxycarbonyl)methoxy-1H-indol-3-yl β-D-glucopyranoside] | <5 | 84 ± 4 |  | 68 |  |
| COC(=O)COc1c(Br)cc2[nH]cc(O[C@@H]3O[C@H](CO)[C@@H](O)[C@H](O)[C@H]3O)c2c1Br [Indoxyl 24, 4,6-Dibromo-5-(methoxycarbonyl)methoxy-1H-indol-3-yl β-D-glucopyranoside] | <5 | 209 ± 6 | 102 ± 3% | 122 | Yield (%) β-glucosidase from almonds [1, 7]: 59% |
| C#CCOc1ccc2[nH]cc(O[C@@H]3O[C@H](CO)[C@@H](O)[C@H](O)[C@H]3O)c2c1 [Indoxyl 25, 5-Propargyloxy-1H-indol-3-yl β-D-glucopyranoside] | 11 | 37 ± 2 |  | <5 |  |
| C#CCOc1ccc2[nH]cc(O[C@@H]3O[C@H](CO)[C@@H](O)[C@H](O)[C@H]3O)c2c1Br [Indoxyl 26, 4-Bromo-5-propargyloxy-1H-indol-3-yl β-D-glucopyranoside] | 17 | 79 ± 1 |  | 56 |  |
| C#CCOc1c(Br)cc2[nH]cc(O[C@@H]3O[C@H](CO)[C@@H](O)[C@H](O)[C@H]3O)c2c1Br [Indoxyl 27, 4,6-Dibromo-5-propargyloxy-1H-indol-3-yl β-D-glucopyranoside] | 50 | 184 ± 3 | 89 ± 2% | 105 | Yield (%) β-glucosidase from almonds [1, 7]: 51% |
| OC[C@H]1O[C@@H](Oc2c[nH]c3cc(Br)c(OCC4[C@H]5CCC#CCC[C@@H]45)c(Br)c23)[C@H](O)[C@@H](O)[C@@H]1O (stereo partly drawn) [Indoxyl 30, 5-{[(1R,8S,9s)-Bicyclo[6.1.0]non-4-yn-9-yl]methoxy}-4,6-dibromo-1H-indole-3-yl β-D-glucopyranoside] |  | 21 ± 1 | 10% and 10 ± 0.4% |  |  |
| O=S(=O)([O-])CCC[N+]1(CCCO)CCN(c2nc(OCCOCCOCCOc3c(Br)cc4[nH]cc(O[C@@H]5O[C@H](CO)[C@@H](O)[C@H](O)[C@H]5O)c4c3Br)nc(OCCOCCOCCOc3c(Br)cc4[nH]cc(O[C@@H]5O[C@H](CO)[C@@H](O)[C@H](O)[C@H]5O)c4c3Br)n2)CC1 [Indoxyl 46] |  |  |  |  | Total yields of indigoid dye (supernatant plus precipitate) ([3]; entries 1-4, [46] 300 to 10 μM): 17-29%; Yield of indigoid dye (%) precipitate [3, 8]: 11%; Yield of indigoid dye (%) supernatant [3, 8]: 6%; Yield of indigoid dye (%) precipitate [3, 9]: 14%; Yield of indigoid dye (%) supernatant [3, 9]: 10%; Yield of indigoid dye (%) precipitate [3, 10]: 16 ± 0.6^c %; Yield of indigoid dye (%) supernatant [3, 10]: 13 ± 0.4^c %; Yield of indigoid dye (%) precipitate [3, 11]: 6%; Yield of indigoid dye (%) supernatant [3, 11]: 22%; Yield of indigoid dye (%) precipitate [3, 12]: 13%; Yield of indigoid dye (%) supernatant [3, 12]: 13%; Yield of indigoid dye (%) precipitate [3, 13]: 8%; Yield of indigoid dye (%) supernatant [3, 13]: 19% |
